# Test system: late watergrass
# Assay: Test Example 1: herbicidal activity, application before weed generation under submerged conditions (Table 16, symbol A)
# Format: in vivo, late watergrass (Echinochloa oryzicola)
# Conditions: 320 g/ha applied herbicide
# Outline: (§1)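 Emulsion formulation, water-diluted to set dose, was put onto the flooded surface (4 cm depth, alluvial soil) the same day weeds were sown and 2.5-leaf rice transplanted. After 3 weeks at 25-30 °C under glass, each species was rated 0 (≤5% kill) to 5 (≥90% kill).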
row,SMILES,Herbicidal effect on A: late watergrass (grade 0-5)
1,Cc1nn(C)c(=O)c(-c2c(-c3ccccc3F)sc3ccc(F)cc23)c1O [2-199],1 (Herbicidal rate of 5% or more and less than 20%)
2,CCCC(=O)Oc1c(C)nn(C)c(=O)c1-c1c(-c2ccc(Br)cc2)sc2ccc(F)cc12 [2-206],5 (Herbicidal rate of 90% or more (almost completely withered))

# Test system: Japanese bulrush
# Assay: Test Example 1: herbicidal activity, application before weed generation under submerged conditions (Table 16, symbol B)
# Format: in vivo, Japanese bulrush (Schoenoplectus juncoides)
# Conditions: 320 g/ha applied herbicide
# Outline: as §1
row,SMILES,Herbicidal effect on B: Japanese bulrush (grade 0-5)
1,Cc1nn(C)c(=O)c(-c2c(-c3ccccc3F)sc3ccc(F)cc23)c1O [2-199],3 (Herbicidal rate of 40% or more and less than 70%)
2,CCCC(=O)Oc1c(C)nn(C)c(=O)c1-c1c(-c2ccc(Br)cc2)sc2ccc(F)cc12 [2-206],5 (Herbicidal rate of 90% or more (almost completely withered))

# Test system: late watergrass
# Assay: Test Example 2: herbicidal activity, application during weed generation under submerged conditions (Table 17, symbol A)
# Format: in vivo, late watergrass (Echinochloa oryzicola)
# Conditions: AAH 320 g/ha; application during weed generation, submerged conditions
# Outline: (§2)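 Herbicide emulsion, diluted with water to the chosen amount, is applied onto 4 cm floodwater over alluvial soil where the weeds were co-sown and raised at 25–30° C. Application timing: 1–2 leaves. Assessment: three weeks afterwards.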
row,SMILES,"herbicidal effect rating, A: late watergrass"
1,Cc1nn(C)c(=O)c(-c2c(-c3ccccc3F)sc3ccc(F)cc23)c1O [2-199],0 (Herbicidal rate of 5% or less (almost no effect))
2,CCCC(=O)Oc1c(C)nn(C)c(=O)c1-c1c(-c2ccc(Br)cc2)sc2ccc(F)cc12 [2-206],4 (Herbicidal rate of 70% or more and less than 90%)

# Test system: oval-leafed pondweed
# Assay: Test Example 2: herbicidal activity, application during weed generation under submerged conditions (Table 17, symbol C)
# Format: in vivo, oval-leafed pondweed (Monochoria vaginalis)
# Conditions: AAH 320 g/ha; application during weed generation, submerged conditions
# Outline: as §2
row,SMILES,"herbicidal effect rating, C: oval-leafed pondweed"
1,Cc1nn(C)c(=O)c(-c2c(-c3ccccc3F)sc3ccc(F)cc23)c1O [2-199],0 (Herbicidal rate of 5% or less (almost no effect))
2,CCCC(=O)Oc1c(C)nn(C)c(=O)c1-c1c(-c2ccc(Br)cc2)sc2ccc(F)cc12 [2-206],4 (Herbicidal rate of 70% or more and less than 90%)

# Test system: barnyard grass
# Assay: Test Example 3: herbicidal effect by foliage application, Wagner pot (Table 18, symbol H)
# Format: in vivo, barnyard grass (Echinochloa crus-galli)
# Conditions: amount of applied herbicide 320 g/ha
# Outline: (§3)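 Plants were sown in alluvial soil held under 0.1–0.5 cm standing water and grown 14 days in a greenhouse at 25–30 °C. An emulsifiable formulation, water-diluted to the set dose, was then sprayed onto the foliage, and effects were scored three weeks later using previously defined criteria.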
row,SMILES,herbicidal effect on H: barnyard grass
1,Cc1nn(C)c(=O)c(-c2c(-c3ccccc3F)sc3ccc(F)cc23)c1O [2-199],5 (Herbicidal rate of 90% or more (almost completely withered))
2,CCCC(=O)Oc1c(C)nn(C)c(=O)c1-c1c(-c2ccc(Br)cc2)sc2ccc(F)cc12 [2-206],5 (Herbicidal rate of 90% or more (almost completely withered))

# Test system: Chinese sprangletop
# Assay: Test Example 3: herbicidal effect by foliage application, Wagner pot (Table 18, symbol D)
# Format: in vivo, chinese sprangletop (Leptochloa chinensis)
# Conditions: amount of applied herbicide 320 g/ha
# Outline: as §3
row,SMILES,herbicidal effect on D: Chinese sprangletop
1,Cc1nn(C)c(=O)c(-c2c(-c3ccccc3F)sc3ccc(F)cc23)c1O [2-199],5 (Herbicidal rate of 90% or more (almost completely withered))
2,CCCC(=O)Oc1c(C)nn(C)c(=O)c1-c1c(-c2ccc(Br)cc2)sc2ccc(F)cc12 [2-206],4 (Herbicidal rate of 70% or more and less than 90%)

# Test system: rice flat sedge
# Assay: Test Example 3: herbicidal effect by foliage application, Wagner pot (Table 18, symbol E)
# Format: in vivo, rice flat sedge (Cyperus iria)
# Conditions: amount of applied herbicide 320 g/ha
# Outline: as §3
row,SMILES,herbicidal effect on E: rice flat sedge
1,Cc1nn(C)c(=O)c(-c2c(-c3ccccc3F)sc3ccc(F)cc23)c1O [2-199],5 (Herbicidal rate of 90% or more (almost completely withered))
2,CCCC(=O)Oc1c(C)nn(C)c(=O)c1-c1c(-c2ccc(Br)cc2)sc2ccc(F)cc12 [2-206],5 (Herbicidal rate of 90% or more (almost completely withered))

# Test system: Italian ryegrass
# Assay: Test Example 4: herbicidal effect by soil treatment (Table 19, symbol K)
# Format: in vivo, Italian ryegrass (Lolium multiflorum)
# Conditions: amount of applied herbicide 320 g/ha
# Outline: (§4)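 Herbicidal effect was rated 3 weeks after treatment, using the scoring criteria of an earlier test. The compound, formulated as an emulsion and diluted in water to a set herbicide amount, had been sprayed uniformly on soil over freshly sown seeds. Growth took place in a greenhouse at 25° C. to 30° C.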
row,SMILES,"K: Italian ryegrass, herbicidal effect rating"
1,Cc1nn(C)c(=O)c(-c2c(-c3ccccc3F)sc3ccc(F)cc23)c1O [2-199],3 (Herbicidal rate of 40% or more and less than 70%)
2,CCCC(=O)Oc1c(C)nn(C)c(=O)c1-c1c(-c2ccc(Br)cc2)sc2ccc(F)cc12 [2-206],5 (Herbicidal rate of 90% or more (almost completely withered))

# Test system: windgrass
# Assay: Test Example 4: herbicidal effect by soil treatment (Table 19, symbol L)
# Format: in vivo, windgrass (Apera spica-venti)
# Conditions: amount of applied herbicide 320 g/ha
# Outline: as §4
row,SMILES,"L: windgrass, herbicidal effect rating"
1,Cc1nn(C)c(=O)c(-c2c(-c3ccccc3F)sc3ccc(F)cc23)c1O [2-199],0 (Herbicidal rate of 5% or less (almost no effect))
2,CCCC(=O)Oc1c(C)nn(C)c(=O)c1-c1c(-c2ccc(Br)cc2)sc2ccc(F)cc12 [2-206],2 (Herbicidal rate of 20% or more and less than 40%)

# Test system: redroot pigweed
# Assay: Test Example 4: herbicidal effect by soil treatment (Table 19, symbol N)
# Format: in vivo, redroot pigweed (Amaranthus retroflexus)
# Conditions: amount of applied herbicide 320 g/ha
# Outline: as §4
row,SMILES,"N: redroot pigweed, herbicidal effect rating"
1,Cc1nn(C)c(=O)c(-c2c(-c3ccccc3F)sc3ccc(F)cc23)c1O [2-199],4 (Herbicidal rate of 70% or more and less than 90%)
2,CCCC(=O)Oc1c(C)nn(C)c(=O)c1-c1c(-c2ccc(Br)cc2)sc2ccc(F)cc12 [2-206],5 (Herbicidal rate of 90% or more (almost completely withered))

# Test system: southern crabgrass
# Assay: Test Example 5: herbicidal effect by foliage application, plastic box (Table 20, symbol F)
# Format: in vivo, southern crabgrass (Digitaria ciliaris)
# Conditions: foliage application, 320 g/ha, evaluated three weeks after application
# Outline: (§5)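 Foliar spray test: emulsion formulation diluted in water to a set application rate, sprayed onto 14-day-old plants raised in diluvial soil at 25° C to 30° C under glass. Both herbicidal effect and crop effect rated visually three weeks later.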
row,SMILES,herbicidal effect on F: southern crabgrass (criteria 0-5)
1,Cc1nn(C)c(=O)c(-c2c(-c3ccccc3F)sc3ccc(F)cc23)c1O [2-199],4 (Herbicidal rate of 70% or more and less than 90%)
2,CCCC(=O)Oc1c(C)nn(C)c(=O)c1-c1c(-c2ccc(Br)cc2)sc2ccc(F)cc12 [2-206],3 (Herbicidal rate of 40% or more and less than 70%)

# Test system: green foxtail
# Assay: Test Example 5: herbicidal effect by foliage application, plastic box (Table 20, symbol G)
# Format: in vivo, green foxtail (Setaria viridis)
# Conditions: foliage application, 320 g/ha, evaluated three weeks after application
# Outline: as §5
row,SMILES,herbicidal effect on G: green foxtail (criteria 0-5)
1,Cc1nn(C)c(=O)c(-c2c(-c3ccccc3F)sc3ccc(F)cc23)c1O [2-199],5 (Herbicidal rate of 90% or more (almost completely withered))
2,CCCC(=O)Oc1c(C)nn(C)c(=O)c1-c1c(-c2ccc(Br)cc2)sc2ccc(F)cc12 [2-206],3 (Herbicidal rate of 40% or more and less than 70%)

# Test system: barnyard grass
# Assay: Test Example 5: herbicidal effect by foliage application, plastic box (Table 20, symbol H)
# Format: in vivo, barnyard grass (Echinochloa crus-galli)
# Conditions: foliage application, 320 g/ha, evaluated three weeks after application
# Outline: as §5
row,SMILES,herbicidal effect on H: barnyard grass (criteria 0-5)
1,Cc1nn(C)c(=O)c(-c2c(-c3ccccc3F)sc3ccc(F)cc23)c1O [2-199],3 (Herbicidal rate of 40% or more and less than 70%)
2,CCCC(=O)Oc1c(C)nn(C)c(=O)c1-c1c(-c2ccc(Br)cc2)sc2ccc(F)cc12 [2-206],5 (Herbicidal rate of 90% or more (almost completely withered))

# Test system: wild oat
# Assay: Test Example 5: herbicidal effect by foliage application, plastic box (Table 20, symbol I)
# Format: in vivo, wild oat (Avena fatua)
# Conditions: foliage application, 320 g/ha, evaluated three weeks after application
# Outline: as §5
row,SMILES,herbicidal effect on I: wild oat (criteria 0-5)
1,Cc1nn(C)c(=O)c(-c2c(-c3ccccc3F)sc3ccc(F)cc23)c1O [2-199],1 (Herbicidal rate of 5% or more and less than 20%)
2,CCCC(=O)Oc1c(C)nn(C)c(=O)c1-c1c(-c2ccc(Br)cc2)sc2ccc(F)cc12 [2-206],4 (Herbicidal rate of 70% or more and less than 90%)

# Test system: blackgrass
# Assay: Test Example 5: herbicidal effect by foliage application, plastic box (Table 20, symbol J)
# Format: in vivo, blackgrass (Alopecurus myosuroides)
# Conditions: foliage application, 320 g/ha, evaluated three weeks after application
# Outline: as §5
row,SMILES,herbicidal effect on J: blackgrass (criteria 0-5)
1,Cc1nn(C)c(=O)c(-c2c(-c3ccccc3F)sc3ccc(F)cc23)c1O [2-199],3 (Herbicidal rate of 40% or more and less than 70%)
2,CCCC(=O)Oc1c(C)nn(C)c(=O)c1-c1c(-c2ccc(Br)cc2)sc2ccc(F)cc12 [2-206],4 (Herbicidal rate of 70% or more and less than 90%)

# Test system: persian speedwell
# Assay: Test Example 5: herbicidal effect by foliage application, plastic box (Table 20, symbol R)
# Format: in vivo, Persian speedwell (Veronica persica)
# Conditions: foliage application, 320 g/ha, evaluated three weeks after application
# Outline: as §5
row,SMILES,herbicidal effect on R: persian speedwell (criteria 0-5)
1,Cc1nn(C)c(=O)c(-c2c(-c3ccccc3F)sc3ccc(F)cc23)c1O [2-199],5 (Herbicidal rate of 90% or more (almost completely withered))
2,CCCC(=O)Oc1c(C)nn(C)c(=O)c1-c1c(-c2ccc(Br)cc2)sc2ccc(F)cc12 [2-206],5 (Herbicidal rate of 90% or more (almost completely withered))
